Converted amounts (≈) assume the structure as drawn. “And” between values parts separate entries of the source, which are not always exact repeats. Equal values may be shown once. Read-outs that look alike come from different tables or passages of the source.
Columns and labels:
[1] = test system: Solid orthotopic L3.6pl pancreas tumor; test: Anti-tumor efficacy in combination with gemcitabine (50 mg/kg); format: in vivo; conditions: for tumor size: day 28 after tumor inoculation, after harvest
Text: • Species: male Balb/c nu/nu mice • Tumor model: Solid orthotopic L3.6pI pancreas tumor (highly mestastatic; Bruns C J, Harbison M T, Kuniyasu H, Eue I, Fidler I J. In vivo selection and characterization of metastatic variants from human pancreatic adenocarcinoma by using orthotopic implantation in nude mice. Neoplasia 1999; 1(1):50-62.) • Supplier: Charles River France
Tumor volume palpated at day 10, 12, 14, 17, 19, 21, 24 after inoculation and at day 26, 28 after harvesting
Necrospy after harvest at day 26 and 28

[2] = test system: Solid orthotopic L3.6pl pancreas tumor; test: Anti-tumor efficacy in combination with gemcitabine (100 mg/kg); conditions: for final tumor volume compared to the control group: day 27, Gemzar 100 mg/kg i.p., MBT-0206/paclitaxel 5 mg/kg i.v.
Method: Tumor size of L3.6pI pancreatic tumors 19 days after start of treatment. Treatment with 10% trehalose, paclitaxel, MBT-0206, Gemzar (gemcitabine) and the combination of both MBT-0206 and Gemzar started 8 days after tumor cell inoculation. Gemzar was applied i.p. at a dose of 100 mg/kg bw twice a week (Mon, Thu). paclitaxel and MBT-0206 were applied i.v. on a Mon, Wed, Fri schedule at a paclitaxel dose of 5 mg/kg bw. The combination group received both MBT-0206 and Gemzar with the respective schedule. Tumors were measured by palpation with a calliper on day 23 and 27. Mean±SEM; n=9 per group.
Metastases at day 19 after start of treatment. Treatment with 10% trehalose, paclitaxel, MBT-0206, Gemzar (gemcitabine) and the combination of both MBT-0206 and Gemzar started at day 8 after tumor cell inoculation. Geinzar was applied i.p. at a dose of 100 mg/kg bw twice a week (Mon, Thu). paclitaxel and MBT-0206 were applied i.v. on a Mon, Wed, Fri schedule at a paclitaxel dose of 5 mg/kg bw. The combination group received both MBT-0206 and Gemzar with the respective schedule, n=9 per group.
Tumor volume palpated at day 23, 26 after inoculation and after harvesting
Necrospy after harvest at day 27

[3] = test system: moderatly drug-resistant uterus sarcoma line Mes-SA/Dx-5; test: Growth inhibitory assay (MTT, 72 h); format: cell-based, human
Method: (§1) FIG. 3-5: The growth inhibitory assay was performed in 24-well plates with each drug concentration tested in duplicate (n=2 wells). 4×10^4 cells per well were seeded into a 24-well plate and incubated over night. The following day, 10-11 concentrations of the respective drug formulation were added for 72 h to cover the range depicted in the respective graphs. Finally, the cell viability was determined by a standard MTT-assay measuring the activity of mitochondrial-dehydrogenases.
(§2) The highly paclitaxel resistant derivative cell line Mes-SA/Dx-5MBT was selected with increasing paclitaxel concentrations from the commercially available line Mes-SA/Dx-5 (ATCC, {Harker, 1986 #29}).

[4] = test system: highly drug-resistant uterus sarcoma line Mes-SA/Dx-5MBT; test: Growth inhibitory assay (MTT, 72 h); format: cell-based, human; conditions: for IC50: Homo sapiens, MES-SA
Method: as §1
(§3) The growth inhibitory assay was performed in 24-well plates with each drug concentration tested in duplicate (n=2 wells). 4×10^4 cells per well were seeded into a 24-well plate and incubated over night. The following day, 10-11 concentrations of the respective drug formulation were added for 72 h to cover the range depicted in the respective graphs. Finally, the cell viability was determined by a standard MTT-assay measuring the activity of mitochondrial dehydrogenases.
These cell lines were selected by stepwise increasing the concentration of paclitaxel in the culture medium.
as §2

[5] = test system: drug-sensitive human uterus sarcoma line Mes-SA; test: Growth inhibitory assay (MTT, 72 h); format: cell-based; conditions: FIG. 5
Method: as §1, §3, §2

[6] = test system: parental drug-sensitive murine colon carcinoma line Colon-26; test: Growth inhibitory assay (MTT, 72 h); format: cell-based; conditions: FIG. 7
Method: (§4) FIG. 6-7: The growth inhibitory assay was performed in 24-well plates with each drug concentration tested in duplicate (n=2 wells). 4×10^4 cells per well were seeded into a 24-well plate and incubated over night. The following day, 10-11 concentrations of the respective drug formulation were added for 72 h to cover the range depicted in the respective graphs. Finally, the cell viability was determined by a standard MTT-assay measuring the activity of mitochondrial dehydrogenases.

[7] = test system: highly drug-resistant murine colon carcinoma line Colon-26MBT; test: Growth inhibitory assay (MTT, 72 h); format: cell-based; conditions: Mus musculus
Method: as §4

[8] = test system: Sk-Mel28 tumor; test: Paclitaxel-resistant melanoma model with human skin transplants in vivo; set-up: species or system SCID mice; conditions: 12.5 mg/kg b.w. every second day
Method: (§5) 2. […] In vivo, these cells were injected into SCID mice bearing human skin transplants between human skin transplant and mouse acceptor skin. Treatments were started on day 17 after tumor cell injection and extended to day 28 with doses (12.5 mg/kg b.w.) every second day. The therapeutic potential of MBT-0206 and paclitaxel were compared on day 7 after start of treatments (see table below). […] Upon treatment with MBT-0206, tumors only marginally grew to about 1/10 the size of paclitaxel (paclitaxel)-treated tumors.
Mes-SA/Dx-5MBT tumor model: tumor volumes on day 23 after start of treatment (9 treatments, i.e. 3 per week, from day 12 to day 31 after tumor cell injection) Sk-Mel tumor model: tumor volumes on day 7 after start of treatment (6 treatments very other day, i.e. from day 17 to day 28 after tumor cell injection).

[9] = test system: drug-resistant human dermal melanoma line Sk-Mel28; test: Growth inhibitory assay (MTT, 72 h); format: cell-based; conditions: SK-MEL-28, FIG. 10
Method: FIG. 10: Inhibitory Potential of paclitaxel against the drug-resistant human dermal melanoma line Sk-Mel28. The growth inhibitory assay was performed in 24-well plates with each drug concentration tested in duplicate (n=2 wells). 4×10^4 cells per well were seeded into a 24-well plate and incubated over night. The following day, 11 concentrations of the respective drug formulation were added for 72 h to cover the range depicted in the respective graphs. Finally, the cell viability was determined by a standard MTT-assay measuring the activity of mitochondrial dehydrogenases.
as §5

Row | Compound | tumor size [1] [mm^3] | mortality at day 24 ([1]; n=9 per group, MBT-0206 5 mg/kg i.v., Gemzar 50 mg/kg i.p.) [animals dead] | final tumor volume compared to the control group [2] [%] | fold lower IC50 value than in Mes-SA/Dx-5MBT [3] | IC50 (50% growth inhibition) ([4]; 72 h, MTT) [ng/mL] | fold increased paclitaxel tolerance compared to the parental line Mes-SA (by IC50 values) ([4]; FIG. 9) [fold] | IC50 ([4]; 72 h, MTT, read-out: IC50) [µg/mL] | IC50 ([4]; 72 h, MTT, read-out: IC50 (50% growth inhibition)) | IC50 [5] [ng/mL] | sensitivity of the line for MBT-0206 and paclitaxel [6] | IC50 ([7]; FIG. 6, read-out: IC50) [µg/mL] | IC50 ([7]; read-out: IC50 (50% growth inhibition)) | weight loss (body weight) ([2]; during the last 11 days) [%] | effect on tumor development [8] | IC50 [9] [µg/mL]
1 | Nc1ccn([C@@H]2O[C@H](CO)[C@@H](O)C2(F)F)c(=O)n1 [Gemzar, gemcitabine] | 398 | 1 | 47 | – | – | – | – | – | – | – | – | – | – | – | –
2 | CC(=O)O[C@H]1C(=O)[C@@]2(C)[C@H]([C@H](OC(=O)c3ccccc3)[C@]3(O)C[C@H](OC(=O)[C@H](O)[C@@H](NC(=O)c4ccccc4)c4ccccc4)C(C)=C1C3(C)C)[C@]1(OC(C)=O)CO[C@@H]1C[C@@H]2O [paclitaxel] | 536 | – | 68 | approximately 7 fold | 867 (≈ 1.02 µM) | ~150 | 0.87 (≈ 1.02 µM) | ~1 µM and ~0.867 µg/mL | 5.5 (≈ 0.00644 µM) | equally sensitive | ~5 (≈ 5.86 µM) | ~5 µM and ~5 µg/mL | 2 | completely ineffective | 5.8 (≈ 6.79 µM)

Reference: patent US20080063699A1, “Method of Administering Cationic Liposomes Comprising an Active Drug” (priority 2003, published 2008)
